What was measured:
[1] = storage stability, sum of by-products and degradation products after 1 week storage; format: physicochemical; conditions: 50° C. in open flask
Excerpt: The sum of by-products and degradation products in % after 1 week storage are as follows: […]

localized GvHD = assay: localized GvHD, inhibition of lymph node swelling; format: in vivo; conditions: dosage of 3 mg
Protocol: (§1) In the localized GvHD, maximal inhibition (70-80%) of lymph node swelling is achieved with a dosage of 3 mg with 40-O-(2-hydroxy)ethyl-rapamycin in crystalline form.

[2] = in vitro and in vivo immunosuppressive activity; conditions: crystalline form compared with amorphous form
Protocol: as §1

Structure (SMILES) | sum of by-products and degradation products [1] | maximal inhibition of lymph node swelling (localized GvHD) | in vitro and in vivo immunosuppressive activity [2]
CO[C@H]1C[C@@H]2CC[C@@H](C)[C@@](O)(O2)C(=O)C(=O)N2CCCC[C@H]2C(=O)O[C@H]([C@H](C)C[C@@H]2CC[C@@H](OCCO)[C@H](OC)C2)CC(=O)[C@H](C)/C=C(\C)[C@@H](O)[C@@H](OC)C(=O)[C@H](C)C[C@H](C)/C=C/C=C/C=C/1C [Without BHT, 40-O-(2-hydroxy)ethyl-rapamycin] | >10% |  | 
CO[C@H]1C[C@@H]2CC[C@@H](C)[C@@](O)(O2)C(=O)C(=O)N2CCCC[C@H]2C(=O)O[C@H]([C@H](C)C[C@@H]2CC[C@@H](OCCO)[C@H](OC)C2)CC(=O)[C@H](C)/C=C(\C)[C@@H](O)[C@@H](OC)C(=O)[C@H](C)C[C@H](C)/C=C/C=C/C=C/1C [40-O-(2-hydroxy)ethyl-rapamycin] |  | 70-80% | comparable to that of the amorphous form
